Source: patent US20110027185A1, “Methods of Screening for Anti-Angiogenic Compounds” (priority 2007, published 2011)

Assays:
HUVEC [1] = experiment: HUVEC cord formation assay on matrigel (NCI); type: cell-based, human; details: Homo sapiens, 24 h
Procedure: Angiogenesis assays were provided by the NCI, details of the assay protocols are given below. In each assays TNP-470 and paclitaxel (Taxol®) were used as reference compounds. Matrigel (60 μL of 10 mg/mL; Collaborative Lab #35423) was placed in each well of an ice-cold 96-well plate. The plate was allowed to sit at room temperature for 15 minutes then it was incubated at 37° C. for 30 minutes to permit the matrigel to polymerize. In the mean time, HUVEC were prepared in EGM-2 (Clonetic #CC3162) at a concentration of 2×10^5 cells/mL. […] The cells (500 μL) and the drug at 2 times concentration (500 μL) were mixed and 200 μL of this suspension was placed in duplicate on the polymerized matrigel. After 24 h incubation, triplicate pictures were taken for each concentration using a Bioquant Image Analysis system. Drug effect (IC50) is assessed compared to untreated controls by measuring the length of cords formed and number of junctions.

HUVEC [2] = experiment: HUVEC cell migration (chemotaxis) assay, Boyden chamber (NCI); type: cell-based, human; details: Homo sapiens, 5 h
Procedure: Angiogenesis assays were provided by the NCI, details of the assay protocols are given below. In each assays TNP-470 and paclitaxel (Taxol®) were used as reference compounds. Migration was assessed using the 48-well Boyden chamber and 8 μm pore size collagen-coated (10 μg/mL rat tail collagen; Collaborative Laboratories) polycarbonate filters (Osmonics, Inc.). The bottom chamber wells received 27-29 μL of DMEM medium alone (baseline) or medium containing chemo-attractant (bFGF, VEGF or Swiss 3T3 cell conditioned medium). The top chambers received 45 μL of HUVEC cell suspension (1×10^6 cells/mL) prepared in DMEM+1% BSA with or without test compound. After 5 h incubation at 37° C., the membrane was rinsed in PBS, fixed and stained in Diff-Quick solutions. The filter was placed on a glass slide with the migrated cells facing down and cells on top were removed using a Kimwipe. The testing was performed in 4-6 replicates and five fields were counted from each well. Negative, unstimulated, control values were subtracted from stimulated control and drug treated values and data was plotted as mean migrated cell±S.D. The IC50 was calculated from the plotted data.

HUVEC [3] = experiment: HUVEC growth inhibition assay (NCI); type: cell-based, human; details: Homo sapiens, 72 h, crystal violet
Procedure: Angiogenesis assays were provided by the NCI, details of the assay protocols are given below. In each assays TNP-470 and paclitaxel (Taxol®) were used as reference compounds. HUVEC (1.5×10^3) were plated in a 96-well plate in 100 μL of EBM-2 (Clonetic #CC3162). […] On day 0, one plate was stained with 0.5% crystal violet in 20% methanol for 10 minutes, rinsed with water, and air-dried. The remaining plates were incubated for 72 h at 37° C. After 72 h, plates were stained with 0.5% crystal violet in 20% methanol, rinsed with water and air-dried. The stain was eluted with 1:1 solution of ethanol:0.1 M sodium citrate (including day 0 plate), and absorbance was measured at 540 nm with an ELISA reader (Dynatech Laboratories). Day 0 absorbance was subtracted from the 72 h plates and data was plotted as percentage of control proliferation (vehicle treated cells).

[4] = test system: endothelial cell proliferation and endothelial capillary formation; details: cited from earlier work

| Compound | IC50 (HUVEC [1]) [nM] | IC50 (HUVEC [2]) [nM] | IC50 (HUVEC [3]) [nM] | selectivity index, capillary formation inhibitory activity versus cell proliferation with respect to borrelidin [4] [fold] |
| --- | --- | --- | --- | --- |
| CO[C@@H]1[C@H](OC(=O)NC(=O)CCl)CC[C@]2(CO2)[C@H]1[C@@]1(C)O[C@@H]1CC=C(C)C [TNP470] | 1000 | 500 | 3.16 ± 0.82 | – |
| CC(=O)O[C@H]1C(=O)[C@@]2(C)[C@H]([C@H](OC(=O)c3ccccc3)[C@]3(O)C[C@H](OC(=O)[C@H](O)[C@@H](NC(=O)c4ccccc4)c4ccccc4)C(C)=C1C3(C)C)[C@]1(OC(C)=O)CO[C@@H]1C[C@@H]2O [Taxol, paclitaxel] | 50 | 100 | 1.65 ± 0.12 | – |
| CC1CC(C)CC(C)C(O)C(C#N)=CC=CCC(C2CCCC2C(=O)OCCc2ccccn2)OC(=O)CC(O)C(C)C1 (stereo not shown) [borrelidin-(2-pyridyl)-ethyl ester] | – | – | – | 7.5 |
| C[C@@H]1C[C@H](C)C[C@H](C)[C@@H](O)CC(=O)O[C@H]([C@@H]2CCC[C@H]2C(=O)NCCN2CCOCC2)C/C=C/C=C(/C#N)[C@H](O)[C@@H](C)C1 [borrelidin-morpholinoethyl amide] | – | – | – | 6 |
| C[C@@H]1C[C@H](C)C[C@H](C)[C@@H](O)CC(=O)O[C@H]([C@@H]2CCC[C@H]2C(=O)OCCN2CCOCC2)C/C=C/C=C(/C#N)[C@H](O)[C@@H](C)C1 [borrelidin-morpholinoethyl ester] | – | – | – | 60 |
| borrelidin-amide | – | – | – | 37 |
